Assay: in vivo pharmacokinetics in mice, intravenous and oral
Set-up: species or system mouse

improvement of bioavailability compared to compound 1 (oral, comparison with ref 22)	oral bioavailability, in words (oral administration)	SMILES
approximately 10 fold		Nc1ccc(-c2ccc3ncc4ccc(=O)n(-c5cccc(C(F)(F)F)c5)c4c3c2)cn1 [Compound 3, 9-(6-aminopyridin-3-yl)-1-(3-(trifluoromethyl)phenyl)benzo[h][1,6]naphthyridin-2(1H)-one]
	very limited oral bioavailability	CCC(=O)N1CCN(c2ccc(-n3c(=O)ccc4cnc5ccc(-c6cnc7ccccc7c6)cc5c43)cc2C(F)(F)F)CC1 [Compound 1, 1-(4-(4-propionylpiperazin-1-yl)-3-(trifluoromethyl)phenyl)-9-(quinolin-3-yl)benzo[h][1,6]naphthyridin-2(1H)-one]

Source: paper PMC3090687 (Journal of medicinal chemistry, 2011)
